Measured values: patent US11596692B1 (Incyte Corporation, priority 2018, dated 2023)
Read-outs that look alike come from different tables or passages of the source.

Key:
PD-L1 [1] = target: T1, PD-L1 (Homo sapiens (Human), UniProt Q9NZQ7); test: PD-L1 surface levels on HEK293T STING reporter cells, high PD-L1; type: cell-based
[2] = system: IFNβ production in CD11b+ monocytes; test: IFN-beta induction in CD11b+ monocytes from healthy donor PBMC; type: cell-based, human; details: CD11b+ monocyte cultures, 20 hours, mean ± SEM
Description: (§1) CD11b^+ cells were isolated from healthy PBMCs as well as Pleural effusion samples using Miltenyi isolation kit according to manufacturer's protocol. Cells were seeded in 96 well plates at the density of 300,000 cells/wells, and then treated with various concentrations of compounds for 20 hours. After 20 hours, IFN-beta secretion levels were evaluated in the culture supernatants by MSD singleplex assay. EC50 values were calculated using Prism software.
(§2) Different naked STING agonisst and PD-L1-targeted small molecule-STING agonist conjugates were added to CD11b^+ monocytes cultures isolated from healthy donor blood or lung cancer patients' pleural effusions. Culture supernatants were collected 20 hours later and IFNβ production were determined using MSD singleplex assay.

PD-L1 [3] = target: T1, PD-L1; test: PD-L1 surface levels on HEK293T STING reporter cells, low PD-L1; type: cell-based
Description: To determine PD-L1 expression on HEK cells after treatment of PD-L1-small molecule conjugated STING agonists, cells were harvested at 20 hours post-treatment. Single cell suspensions were then stained with phycoerythrin-conjugated anti-PD-L1 antibody (BD Bioscience), and the PD-L1 expression were then analyzed by flow cytometry. Mean fluorescence intensity was used as the relative level of surface PD-L1 expression on cells (FIG. 1 and Table 6).
Also, cells were stained with PE-conjugated anti-human PD-L1 antibody to determine surface PD-L1 expression. Cell acquisition was performed on BD LSRFortessa X-20 (BD Biosciences). Data was analyzed using FlowJo software. IC50 values were calculated using Prism Software.

[4] = system: IFNβ production in CD11b+ monocytes; test: IFN-beta induction in CD11b+ monocytes from lung cancer pleural effusions; type: cell-based, human; details: CD11b+ monocyte cultures, lung cancer pleural effusion, 20 hours; read-out: EC50 for IFNβ induction, Cancer patient
Description: as §1, §2

[5] = system: IRF3 activation in PD-L1 high HEK293T STING reporter cell line; test: IRF3 activation in HEK293T STING reporter cells, high PD-L1; type: cell-based, human; details: for EC50: 20 hours; for Potency shift: with compound P27 (1 μM) versus no competition
Summary of the method: (§3)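 HEK293T-derived STING reporter cells (293T-Dual hSTING-R232, ISRE-inducible SEAP) with native low PD-L1 or stably overexpressing human PD-L1, 100,000 cells/well, treated with serially diluted STING agonist conjugates for 20 hours at 37° C. IRF activity read as supernatant SEAP by QUANTI-Blue.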

[6] = system: IRF3 activation in PD-L1 low HEK293T STING reporter cell line; test: IRF3 activation in HEK293T STING reporter cells, low PD-L1; type: cell-based, human; details: 20 hours, read-out: IRF Activation EC50 (nM), Low PD-L1
Summary of the method: as §3

PD-L1 [7] = target: T1, PD-L1; test: Direct method for PD-L1 internalization in CHO-PD-L1 cells; type: cell-based; details: 40 nM pHrodo-labelled antibody, 5 to 16 hours, versus IgG control
Description: Endocytosis or internalization of PD-L1 was measured by two different methods, one direct and the other indirect. In the direct method, an anti PD-L1 antibody labeled with a pH sensitive fluorophore is incubated with PD-L1 expressing cells. Upon internalization and trafficking of the antibody-PD-L1 complex to low pH endosomes, fluorescence is emitted. In the indirect method, cell surface PD-L1 is measured using an anti PD-L1 antibody after incubation with a compound to determine remaining, non-internalized receptor.
For the direct measurement, biotinylated anti-PD-L1 antibody (BPS Biosciences) or Atezolizumab, biotinylated with a 20-fold excess of biotin using the EZ-Link™ Sulfo-NHS-LC-Biotin reagents (ThermoFisher), were labeled with pHrodo™ Red Avidin (Life Technologies) conjugate. Equimolar solutions of the antibody and pHrodo™ Red avidin (4.2 uM each) were incubated on ice for 2 hours in the dark in a buffer composed of 40 mM Tris-HCl, pH 8.0, 110 mM NaCl, 2.2 mM KCl, 20% glycerol, and 1% bovine serum albumin The mixture was centrifuged for 1 minute at 1000 rpm, and the clarified supernatant was used in subsequent assays. […] The cells were analyzed by flow cytometry, and internalized antibody-receptor complex was detected using a C6 Accuri Flow Cytometer (excitation with […] and emission collected with a 585/40 bandpass filter).

[8] = high PD-L1 cells, read-out: IRF Activation EC50 (nM), High PD-L1
[9] = no competition, read-out: IRF Activation EC50 (nM), No competition
[10] = read-out: IRF Activation EC50 (nM), With compound P27 (1 μM), competition with compound P27 1 μM

T1 sequence (Q9NZQ7 19-290): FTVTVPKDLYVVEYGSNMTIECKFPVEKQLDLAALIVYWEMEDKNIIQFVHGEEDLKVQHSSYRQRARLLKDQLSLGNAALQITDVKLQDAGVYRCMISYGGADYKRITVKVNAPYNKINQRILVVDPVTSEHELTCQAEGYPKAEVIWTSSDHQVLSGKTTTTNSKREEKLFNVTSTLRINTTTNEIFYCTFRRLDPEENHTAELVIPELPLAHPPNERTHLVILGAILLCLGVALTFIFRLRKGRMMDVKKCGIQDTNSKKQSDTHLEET

CCn1nc(C)cc1C(=O)Nc1nc2cc(C(N)=O)cc(OC)c2n1C/C=C/Cn1c(NC(=O)c2cc(C)nn2CC)nc2cc(C(N)=O)cc(OCCCNC(=O)[C@H](CC(=O)O)NC(=O)[C@H](CC(=O)O)NC(=O)[C@H](CCCNC(=N)N)NC(=O)[C@H](CC(=O)O)NC(=O)CCCN3CCc4c(nc(C(=O)Nc5cccc(-c6cccc(NC(=O)c7nc8c(n7C)CCN(CCCC(=O)O)C8)c6Cl)c5Cl)n4C)C3)c21 [Example 1]
IC50 (PD-L1 [1]): < 50 nM | EC50 [2]: 5030 ± 1260 nM | IC50 (PD-L1 [3]): > 1000 nM | EC50 [4]: 406 nM | EC50 [5, 8]: < 50 nM | EC50 [5, 9]: < 50 nM | EC50 [5, 10]: 200 to 1000 nM | Potency shift [5]: >100 | EC50 [6]: 200 to 1000 nM

CCn1nc(C)cc1C(=O)Nc1nc2cc(C(N)=O)cc(OC)c2n1C/C=C/Cn1c(NC(=O)c2cc(C)nn2CC)nc2cc(C(N)=O)cc(OCCCNC(=O)CCNC(=O)OCc3ccc(NC(=O)[C@H](CCCNC(N)=O)NC(=O)[C@@H](NC(=O)CCCN4CCc5c(nc(C(=O)Nc6cccc(-c7cccc(NC(=O)c8nc9c(n8C)CCN(CCCC(=O)O)C9)c7Cl)c6Cl)n5C)C4)C(C)C)cc3)c21 [Example 2]
IC50 (PD-L1 [1]): < 50 nM | IC50 (PD-L1 [3]): > 1000 nM | EC50 [5, 8]: < 50 nM | EC50 [5, 9]: < 50 nM | EC50 [5, 10]: 50 to 200 nM | Potency shift [5]: >20 | EC50 [6]: 50 to 200 nM

CCn1nc(C)cc1C(=O)Nc1nc2cc(C(N)=O)cc(OC)c2n1C/C=C/Cn1c(NC(=O)c2cc(C)nn2CC)nc2cc(C(N)=O)cc(OCCCNC(=O)CCNC(=O)OCCSSC[C@H](NC(=O)[C@H](CC(=O)O)NC(=O)[C@H](CC(=O)O)NC(=O)[C@H](CCCNC(=N)N)NC(=O)[C@H](CC(=O)O)NC(=O)CCCN3CCc4c(nc(C(=O)Nc5cccc(-c6cccc(NC(=O)c7nc8c(n7C)CCN(CCCC(=O)O)C8)c6Cl)c5Cl)n4C)C3)C(=O)O)c21 [Example 5]
IC50 (PD-L1 [1]): < 50 nM | IC50 (PD-L1 [3]): > 1000 nM | EC50 [5, 8]: < 50 nM | EC50 [5, 9]: < 50 nM | EC50 [5, 10]: 200 to 1000 nM | Potency shift [5]: >20 | EC50 [6]: 200 to 1000 nM

Atezolizumab
PD-L1 internalization (direct method) (PD-L1 [7]): dos not cause PD-L1 internalization
